Measured values from paper PMC5508973 (ChemMedChem, 2017).

Experiments:
[1] = tested on: peripheral blood mononuclear cells (PBMCs) from normal healthy donors; settings: treatment with 50 μM
LO2 = test: cells; type: cell-based; settings: Homo sapiens, L02, 24 h
[2] = tested on: CBL-resistant K562 cell line; type: cell-based, Human; settings: K562, 24-h incubation, Annexin-V
K562/ADR = test: cells; type: cell-based; settings: Homo sapiens, 24 h
[3] = tested on: primary chronic lymphocytic leukemia (CLL) cells; type: cell-based, Human; settings: treatment with 50 μM
HeLa = test: cells; type: cell-based; settings: Homo sapiens, 24 h
MM.1R = test: cells; type: cell-based; settings: Homo sapiens, 24 h
U937 = test: cells; type: cell-based; settings: Homo sapiens, U-937, 24 h
NIH3T3 = test: cells; type: cell-based; settings: Mus musculus, NIH3T3, 24 h
MM.1S = test: cells; type: cell-based; settings: Homo sapiens, MM1.S, 24 h
[4] = tested on: 17.7 kb segment of nDNA at the b-globin gene and 8.9 kb fragment of mtDNA; test: DNA damage by PCR amplification of nDNA and mtDNA; type: cell-based; settings: PCR amplification after cell treatment
K562 = test: cells; type: cell-based; settings: Homo sapiens, K562, 24 h

Q: Which results are given for O=C(O)CCCc1ccc(N(CCCl)CCCl)cc1 [CBL, chlorambucil]?
A: PBMCs killed [1]: 11%; IC50 (LO2): > 600 µM; apoptotic cell population [2]: 11.24%; IC50 (K562/ADR): > 1000 µM; CLL cells killed [3]: 32.3%; IC50 (HeLa): 321 ± 33.2 µM; IC50 (MM.1R): 236 ± 16.9 µM; IC50 (U937): 45.7 ± 3.71 µM; IC50 (NIH3T3): > 600 µM; IC50 (MM.1S): 47.4 ± 5.08 µM; DNA damage in nuclear and mitochondrial genome [4]: primarily damaged nDNA with very few mitochondrial lesions; IC50 (K562): 417 ± 27.9 µM
